# Entries after “also recorded” stand apart in the source; their conditions may differ.
# System: facial neuropathic MA (IoN-CCl)
# Experiment: Neuropathic MA: chronic constriction injury of the infraorbital nerve (IoN-CCl)
# Format: in vivo
# Conditions: rat, intracisternal 5 μL at 100 μM, 14 days after IoN-CCl
# Protocol: Time courses of changes in behavioral responses (allodynic score) evoked by normally innocuous mechanical stimuli (6-g von Frey filament) applied on the face of rats intracisternally treated with compound 69 (5 μL at 100 μM) or vehicle. In A, compound 69 or vehicle was preemptively applied 30 min before subcutaneous injection of CFA (at time 0). In B, compound 69 or vehicle was applied (at time 0) 14 days after IoN-CCl; that is, once a stable MA was established. […] Results are presented as mean±s.e.m.; n=4 (A) and n=5 (B) in each group. Allodynic score (from 0 to 4) according to Vos et al. J. Neurosci. 1994, 14, 2708-2723.
# Rat model of neuropathic MA: chronic constriction injury of the rat's infraorbital nerve (IoN-CCl).
# IoN-CCl was performed following a previously established surgical procedure Vos et al J. Neurosci. […]
# For investigating the effects of synthetized compounds upon mechanical allodynia, animals were briefly (<2 min) anesthetized using a mask with 2% isoflurane and received an intracisternal injection of 5 μL of compound (100 μM) or vehicle alone (saline+1% DMSO) using a 10 μL Hamilton syringe. […] The behavioral responses were observed and quantified by a second experimenter (see below). […]
# Compound 69 was also evaluated in a rat model of facial neuropathic MA produced by the constriction injury of the rat infraorbital nerve (IoN-CCl; J. Neurosci. 1994, 14, 2708-2723) (FIG. 2B). […]
smiles,measurement,value
"O=c1[nH]cc(Nc2ccccc2)cc1-c1ccccc1Br [Compound 69, 3-(2-Bromophenyl)-5-(phenylamino)pyridin-2(1H)-one]",reversal of neuropathic MA (allodynic score),reversed MA; also recorded: quickly reversed

# Source: patent US12351556B2, “Pyridin-2(1H)one derivatives, their preparation and their use for the treatment of pain” (INSTITUT NATIONAL DE LA SANTE ET DE LA RECHERCHE MEDICALE …, priority 2019, dated 2025)
